# According to PubChem BioAssay AID1919005 (Molecular Pharmacology Branch, DTP, NCI, 2023):
# System: 855422-203-R-J1-PDC complex spheroid growth
# Experiment: Anticancer human tumor 855422-203-R-J1-PDC patient-derived bladder carcinoma cell line growth inhibition [AhR]
# Conditions: for IC50: curve of first compound; for viability, T/C: stronger effect = lower value
# Outline: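 Complex tumor spheroids co-cultured with HUVEC and human MSC stroma; AhR antagonists tested in combination with standard-of-care and investigational agents. Top concentration at or near clinical Cmax (else 10 microM), half-log dilutions; growth expressed as percent test/control.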
# [1] = second compound 0.1 µM, first compound 0.0316 µM
# [2] = second compound 0.1 µM, first compound 0.1 µM
# [3] = second compound 0.1 µM, first compound 0.316 µM
# [4] = second compound 0.1 µM, first compound 1 µM
# [5] = second compound 0.1 µM, first compound 3.16 µM
# [6] = second compound 0.1 µM, first compound 10 µM
# [7] = second compound 0.316 µM, first compound 0.0316 µM
# [8] = second compound 0.316 µM, first compound 0.1 µM
# [9] = second compound 0.316 µM, first compound 0.316 µM
# [10] = second compound 0.316 µM, first compound 1 µM
# [11] = second compound 0.316 µM, first compound 3.16 µM
# [12] = second compound 0.316 µM, first compound 10 µM
# [13] = second compound 1 µM, first compound 0.0316 µM
# [14] = second compound 1 µM, first compound 0.1 µM
# [15] = second compound 1 µM, first compound 0.316 µM
# [16] = second compound 1 µM, first compound 1 µM
# [17] = second compound 1 µM, first compound 3.16 µM
# [18] = second compound 1 µM, first compound 10 µM
# [19] = second compound 3.16 µM, first compound 0.0316 µM
# [20] = second compound 3.16 µM, first compound 0.1 µM
# [21] = second compound 3.16 µM, first compound 0.316 µM
# [22] = second compound 3.16 µM, first compound 1 µM
# [23] = second compound 3.16 µM, first compound 3.16 µM
# [24] = second compound 3.16 µM, first compound 10 µM
# [25] = second compound 10 µM, first compound 0.0316 µM
# [26] = second compound 10 µM, first compound 0.1 µM
# [27] = second compound 10 µM, first compound 0.316 µM
# [28] = second compound 10 µM, first compound 1 µM
# [29] = second compound 10 µM, first compound 3.16 µM
# [30] = second compound 10 µM, first compound 10 µM
# 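Note: spheroids exposed to agents for seven days before readout.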
# 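Throughout, for viability, T/C: percent of DMSO vehicle control luminescence viability.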
Structure (SMILES),IC50 (second compound 0.1 µM),IC50 (second compound 0.316 µM),IC50 (second compound 1 µM),IC50 (second compound 3.16 µM),IC50 (second compound 10 µM),"viability, T/C [1]","viability, T/C [2]","viability, T/C [3]","viability, T/C [4]","viability, T/C [5]","viability, T/C [6]","viability, T/C [7]","viability, T/C [8]","viability, T/C [9]","viability, T/C [10]","viability, T/C [11]","viability, T/C [12]","viability, T/C [13]","viability, T/C [14]","viability, T/C [15]",further results
O=C(C=Cc1cccc(S(=O)(=O)Nc2ccccc2)c1)NO + CC(CO)NC(=O)c1cc(-c2ccc(Cl)cc2)nn(-c2cnn(C)c2)c1=O,2.15 µM,1.97 µM,2.03 µM,1.54 µM,1.73 µM,87.4%,88.6%,91.1%,71.7%,38.5%,1.42%,89.1%,88.2%,92.7%,70.6%,34.7%,0.82%,93.7%,87.8%,86.6%,"viability, T/C [16]: 79.8%; viability, T/C [17]: 31.7%; viability, T/C [18]: 0.88%; viability, T/C [19]: 83.2%; viability, T/C [20]: 86.8%; viability, T/C [21]: 90.7%; viability, T/C [22]: 60.3%; viability, T/C [23]: 27.9%; viability, T/C [24]: 0.71%; viability, T/C [25]: 87.2%; viability, T/C [26]: 90.3%; viability, T/C [27]: 79.4%; viability, T/C [28]: 67.3%; viability, T/C [29]: 31.8%; viability, T/C [30]: 0.94%"
O=C(C=Cc1cccc(S(=O)(=O)Nc2ccccc2)c1)NO + Cc1ccccc1N=Nc1ccc(NC(=O)c2ccnn2C)c(C)c1,3.99 µM,4.23 µM,4.26 µM,3.75 µM,3.25 µM,104%,107%,109%,111%,61.7%,3.76%,105%,114%,111%,106%,65.2%,5.12%,97.9%,109%,111%,"viability, T/C [16]: 105%; viability, T/C [17]: 66.2%; viability, T/C [18]: 3.95%; viability, T/C [19]: 96.8%; viability, T/C [20]: 95.6%; viability, T/C [21]: 104%; viability, T/C [22]: 96.5%; viability, T/C [23]: 58.1%; viability, T/C [24]: 3.54%; viability, T/C [25]: 87.2%; viability, T/C [26]: 95.4%; viability, T/C [27]: 88.7%; viability, T/C [28]: 79.6%; viability, T/C [29]: 51.3%; viability, T/C [30]: 3.79%"
